Data on 23 compounds can be found in patent US20180280377A1, “Imidazo[4,5-c]quinolin-2-one Compounds and Their Use in Treating Cancer” (ASTRAZENECA AB, priority 2015, published 2018).

Test [1] has as its target T1, ATM (Homo sapiens, UniProt Q13315).
T1 construct: endogenous in cells; host or cells: HT29 cells (ECACC #85061109)
The test can be described thus: ATM cellular potency assay (pATM Ser1981 in irradiated HT29 cells). The test is classed as cell-based. The settings on record: 1 h compound, X-ray irradiation, pATM (Ser1981); Table 2; read-out: Assay a) ATM Cell IC50. Here is the method: (§1) The following assays were used to measure the effects of the compounds of the present invention: a) ATM cellular potency assay; b) PI3K cellular potency assay; c) mTOR cellular potency assay; d) ATR cellular potency assay. During the description of the assays, generally: • i. […] IC50 values were calculated using a smart fitting model in Genedata.
Most ATM molecules in the cell are rapidly phosphorylated on this site after doses of radiation as low as 0.5 Gy, and binding of a phosphospecific antibody is detectable after the introduction of only a few DNA double-strand breaks in the cell.
The rationale of the pATM assay is to identify inhibitors of ATM in cells. HT29 cells are incubated with test compounds for 1 h prior to X-ray-irradiation. 1 h later the cells are fixed and stained for pATM (Ser1981). The fluorescence is read on the arrayscan imaging platform.
The following morning compounds of Formula (I) in 100% DMSO were added to assay plates by acoustic dispensing. After 1 h incubation at 37° C. and 5% CO2, plates (up to 6 at a time) were irradiated using the X-RAD 320 instrument (PXi) with equivalent to 600 cGy. Plates were returned to the incubator for a further 1 h. Then cells were fixed by adding 20 μl of 3.7% formaldehyde in PBS solution and incubating for 20 minutes at r.t. before being washed with 50μl/well PBS, using a Biotek EL405 plate washer. Then 20 μl of 0.1% Triton X100 in PBS was added and incubated for 20 minutes at r.t., to permeabalise cells. Then the plates were washed once with 50 μl/well PBS, using a Biotek EL405 plate washer.
After 1 h incubation at r.t., the plates were washed three times with 50 μl/well PBS, using a Biotek EL405 plate washer, and plates were sealed and kept in PBS at 4° C. until read. Plates were read using an ArrayScan VTI instrument, using an XF53 filter with 10× objective.

In test [2] the target is T2, ATR (Homo sapiens, UniProt Q13535).
T2 construct: endogenous in cells; host or cells: HT29 cells (ECACC #85061109)
The test can be described thus: ATR cellular potency assay (pChk1 Ser345 in HT29 cells after 4NQO). The settings on record: pChk1 (Ser 345); Table 2; read-out: Assay b) ATR Cell IC50. The test is classed as cell-based. The method, then: as §1
ATR is a PI3-kinase-related kinase which phosphorylates multiple substrates on serine or threonine residues in response to DNA damage during or replication blocks. Chk1, a downstream protein kinase of ATR, plays a key role in DNA damage checkpoint control. Activation of Chk1 involves phosphorylation of Ser317 and Ser345 (the latter regarded as the preferential target for phosphorylation/activation by ATR).
The following morning compound of Formula (I) in 100% DMSO were added to assay plates by acoustic dispensing. After 1 h incubation at 37° C. and 5% CO2, 40 nl of 3 mM 4NQO in 100% DMSO was added to all wells by acoustic dispensing, except minimum control wells which were left untreated with 4NQO to generate a null response control. Plates were returned to the incubator for a further 1 h. Then cells were fixed by adding 20 μl of 3.7% formaldehyde in PBS solution and incubating for 20 mins at r.t. Then […] of 0.1% Triton X100 in PBS was added and incubated for 10 minutes at r.t., to permeabalise cells. Then the plates were washed once with […] PBS, using a Biotek EL405 plate washer.
After 2 h incubation at r.t., the plates were washed three times with […] PBS, using a Biotek EL405 plate washer, and plates were then sealed with black plate seals until read. Plates were read using an ArrayScan VTI instrument, using an XF53 filter with 10× objective.

T2 sequence (Q13535 whole entry): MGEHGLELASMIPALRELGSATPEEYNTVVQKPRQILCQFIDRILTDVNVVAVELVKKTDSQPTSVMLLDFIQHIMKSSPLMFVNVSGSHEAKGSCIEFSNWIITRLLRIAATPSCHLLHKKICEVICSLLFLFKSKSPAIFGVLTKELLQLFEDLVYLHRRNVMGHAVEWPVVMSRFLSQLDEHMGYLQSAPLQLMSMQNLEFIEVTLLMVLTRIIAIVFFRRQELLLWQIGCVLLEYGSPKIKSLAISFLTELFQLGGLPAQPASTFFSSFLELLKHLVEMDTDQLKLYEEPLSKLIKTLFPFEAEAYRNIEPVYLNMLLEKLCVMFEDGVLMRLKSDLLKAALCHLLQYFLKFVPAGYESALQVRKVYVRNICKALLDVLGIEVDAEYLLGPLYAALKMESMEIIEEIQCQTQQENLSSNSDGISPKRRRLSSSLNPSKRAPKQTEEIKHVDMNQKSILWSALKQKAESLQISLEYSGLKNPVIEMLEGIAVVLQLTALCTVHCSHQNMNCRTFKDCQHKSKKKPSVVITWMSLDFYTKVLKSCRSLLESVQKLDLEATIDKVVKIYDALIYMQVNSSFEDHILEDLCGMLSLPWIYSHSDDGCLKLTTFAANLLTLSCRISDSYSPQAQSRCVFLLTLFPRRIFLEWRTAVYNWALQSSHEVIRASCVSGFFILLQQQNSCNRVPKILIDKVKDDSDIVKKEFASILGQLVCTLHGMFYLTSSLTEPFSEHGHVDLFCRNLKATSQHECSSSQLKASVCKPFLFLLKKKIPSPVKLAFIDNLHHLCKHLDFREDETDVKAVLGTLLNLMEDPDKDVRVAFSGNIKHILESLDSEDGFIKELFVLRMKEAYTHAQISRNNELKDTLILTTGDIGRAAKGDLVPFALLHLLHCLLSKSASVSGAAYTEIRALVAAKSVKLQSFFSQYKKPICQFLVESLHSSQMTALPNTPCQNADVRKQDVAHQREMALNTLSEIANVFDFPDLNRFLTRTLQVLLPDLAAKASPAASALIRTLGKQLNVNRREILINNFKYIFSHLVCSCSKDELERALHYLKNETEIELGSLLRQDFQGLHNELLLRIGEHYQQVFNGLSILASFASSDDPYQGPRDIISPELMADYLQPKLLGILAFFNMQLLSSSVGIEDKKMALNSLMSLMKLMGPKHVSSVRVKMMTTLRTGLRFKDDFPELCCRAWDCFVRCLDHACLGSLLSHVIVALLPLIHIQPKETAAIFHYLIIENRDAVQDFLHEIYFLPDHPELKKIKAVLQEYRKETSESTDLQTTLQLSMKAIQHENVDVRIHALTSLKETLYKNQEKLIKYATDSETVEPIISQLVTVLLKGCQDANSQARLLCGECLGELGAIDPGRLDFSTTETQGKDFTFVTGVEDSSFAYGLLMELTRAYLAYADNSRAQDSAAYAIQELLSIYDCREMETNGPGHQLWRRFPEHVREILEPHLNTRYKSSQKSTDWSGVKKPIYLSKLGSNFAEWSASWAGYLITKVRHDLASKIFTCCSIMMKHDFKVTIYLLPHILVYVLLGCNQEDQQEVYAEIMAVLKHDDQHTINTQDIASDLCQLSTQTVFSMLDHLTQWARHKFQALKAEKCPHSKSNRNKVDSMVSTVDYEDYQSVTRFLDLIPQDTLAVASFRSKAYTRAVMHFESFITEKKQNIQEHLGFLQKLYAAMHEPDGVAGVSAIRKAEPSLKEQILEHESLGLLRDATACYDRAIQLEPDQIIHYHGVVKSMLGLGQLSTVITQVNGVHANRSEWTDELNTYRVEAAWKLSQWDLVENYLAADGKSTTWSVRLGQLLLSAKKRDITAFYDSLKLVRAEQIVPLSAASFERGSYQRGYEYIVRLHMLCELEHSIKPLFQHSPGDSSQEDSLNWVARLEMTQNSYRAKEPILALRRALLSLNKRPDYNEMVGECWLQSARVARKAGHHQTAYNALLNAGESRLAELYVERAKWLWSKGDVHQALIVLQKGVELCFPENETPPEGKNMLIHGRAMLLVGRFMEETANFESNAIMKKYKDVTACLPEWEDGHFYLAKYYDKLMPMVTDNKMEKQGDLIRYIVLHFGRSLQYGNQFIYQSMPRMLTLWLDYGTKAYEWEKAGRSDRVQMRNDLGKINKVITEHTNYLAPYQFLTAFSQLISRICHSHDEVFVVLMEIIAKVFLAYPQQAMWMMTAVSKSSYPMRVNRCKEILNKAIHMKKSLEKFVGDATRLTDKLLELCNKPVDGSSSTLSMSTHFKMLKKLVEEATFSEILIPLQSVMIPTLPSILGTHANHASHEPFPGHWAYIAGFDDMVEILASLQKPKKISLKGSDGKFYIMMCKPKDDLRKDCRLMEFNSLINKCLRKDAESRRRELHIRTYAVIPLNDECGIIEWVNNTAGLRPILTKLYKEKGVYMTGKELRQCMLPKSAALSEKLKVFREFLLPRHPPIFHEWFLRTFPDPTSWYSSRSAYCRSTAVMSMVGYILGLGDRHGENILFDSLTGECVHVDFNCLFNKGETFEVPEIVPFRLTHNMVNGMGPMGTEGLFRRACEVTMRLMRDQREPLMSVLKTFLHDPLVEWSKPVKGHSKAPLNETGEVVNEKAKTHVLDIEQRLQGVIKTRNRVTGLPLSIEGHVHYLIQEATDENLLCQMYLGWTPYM
T2 sequence (Q8WXE1 whole entry partner): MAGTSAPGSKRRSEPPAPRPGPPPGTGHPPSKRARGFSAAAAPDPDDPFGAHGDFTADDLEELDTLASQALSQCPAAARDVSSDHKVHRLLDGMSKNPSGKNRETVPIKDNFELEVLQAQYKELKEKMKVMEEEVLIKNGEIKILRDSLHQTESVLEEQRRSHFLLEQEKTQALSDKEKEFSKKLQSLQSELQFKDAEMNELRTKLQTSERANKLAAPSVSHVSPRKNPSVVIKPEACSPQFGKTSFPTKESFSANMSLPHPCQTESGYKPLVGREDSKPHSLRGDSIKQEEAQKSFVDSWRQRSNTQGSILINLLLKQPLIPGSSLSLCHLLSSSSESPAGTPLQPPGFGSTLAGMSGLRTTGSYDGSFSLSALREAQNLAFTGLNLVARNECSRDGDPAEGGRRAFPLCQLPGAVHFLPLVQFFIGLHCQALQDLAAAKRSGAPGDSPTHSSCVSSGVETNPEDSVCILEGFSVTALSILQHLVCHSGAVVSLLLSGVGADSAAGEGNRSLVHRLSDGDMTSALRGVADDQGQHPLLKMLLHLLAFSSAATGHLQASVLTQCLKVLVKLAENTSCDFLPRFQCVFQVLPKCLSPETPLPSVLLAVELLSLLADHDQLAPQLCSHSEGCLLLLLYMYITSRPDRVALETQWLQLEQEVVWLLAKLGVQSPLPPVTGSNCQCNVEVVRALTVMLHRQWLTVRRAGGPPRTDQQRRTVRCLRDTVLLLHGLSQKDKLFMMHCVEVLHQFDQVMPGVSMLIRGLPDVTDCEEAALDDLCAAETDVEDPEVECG

Regarding `CO[C@H]1CCC[C@H](n2c(=O)n(C)c3cnc4ccc(-c5ccc(N6CCC(N(C)C)CC6)nc5)cc4c32)C1` (single isomer, unassigned) [Example 53, 8-[6-[4-(dimethylamino)-1-piperidyl]-3-pyridyl]-1-[trans-3-methoxycyclohexyl]-3-methyl-imidazo[4,5-c]quinolin-2-one], the IC50 was 0.269 nM in test [1] and over 21400 nM in test [2].

For `CN(C)C1CN(c2ccc(-c3ccc4ncc5c(c4c3)n([C@H]3CCCOC3)c(=O)n5C)cn2)C1` [Example 24, 8-[6-[3-(dimethylamino)azetidin-1-yl]-3-pyridyl]-3-methyl-1-[(3S)-tetrahydropyran-3-yl]imidazo[4,5-c]quinolin-2-one], the half-maximal inhibitory concentration (IC50) in test [1] is 16.6 nM; in test [2], 9230 nM.

`CN(C)[C@@H]1CCN(c2ccc(-c3ccc4ncc5c(c4c3)n(C3CCOCC3)c(=O)n5C)cn2)C1` [Example 13]: in test [1], the IC50 is over 23.9 nM. For the compound `CO[C@@H]1CCC[C@H](n2c(=O)n(C)c3cnc4ccc(-c5ccc(N6CC(N(C)C)C6)nc5)cc4c32)C1` (single isomer, unassigned) [Example 49, 8-[6-[3-(dimethylamino)azetidin-1-yl]-3-pyridyl]-1-[cis-3-methoxycyclohexyl]-3-methyl-imidazo[4,5-c]quinoline-2-one], the values for the IC50 in test [1] and in test [2] were 15.3 nM and 1910 nM, respectively. For `CNC1CCN(c2ccc(-c3ccc4ncc5c(c4c3)n(C3CCOCC3)c(=O)n5C)cn2)CC1` [Example 61, 3-methyl-8-[6-[4-(methylamino)-1-piperidyl]-3-pyridyl]-1-tetrahydropyran-4-yl-imidazo[4,5-c]quinolin-2-one], in that order: 0.753 nM and over 25500 nM. For `CO[C@H]1C[C@@H](n2c(=O)n(C)c3cnc4ccc(-c5ccc(N6CC[C@@H](N(C)C)C6)nc5)cc4c32)C1` [Example 10], in that order: 0.752 nM and 3210 nM.

In the case of `CO[C@H]1CC[C@H](n2c(=O)n(C)c3cnc4ccc(-c5ccc(N6CC[C@@H](N(C)C)C6)nc5)cc4c32)CC1` [Example 12], the values for the IC50 in test [1] and in test [2] were 0.434 nM and 223 nM, respectively. `CNC1CCN(c2ccc(-c3ccc4ncc5c(c4c3)n([C@H]3CCCOC3)c(=O)n5C)cn2)CC1` [Example 59, 3-methyl-8-[6-[4-(methylamino)-1-piperidyl]-3-pyridyl]-1-[(3S)-tetrahydropyran-3-yl]imidazo[4,5-c]quinolin-2-one]: the 50% inhibitory concentration (IC50) is 1.38 nM in test [1] and over 30000 nM in test [2].

In the case of `CN(C)[C@@H]1CCN(c2ccc(-c3cc4c(cc3F)ncc3c4n([C@H]4CCCOC4)c(=O)n3C)cn2)C1` [Example 15], the IC50 is 1.46 nM in test [1] and over 30000 nM in test [2]. In the case of `CN(C)C1CN(c2ccc(-c3ccc4ncc5c(c4c3)n(C3CCOCC3)c(=O)n5C)cn2)C1` [Example 28, 8-[6-[3-(dimethylamino)azetidin-1-yl]-3-pyridyl]-3-methyl-1-tetrahydropyran-4-yl-imidazo[4,5-c]quinolin-2-one], the figures for the IC50 in test [1] and in test [2] were 19.5 nM and 18800 nM, respectively. As for `CN(C)[C@H]1CCN(c2ccc(-c3ccc4ncc5c(c4c3)n([C@H]3CCCOC3)c(=O)n5C)cn2)C1` [Example 17], the IC50 in test [1] was 13.7 nM; in test [2], over 30000 nM. On the same counts, the results for `CO[C@H]1C[C@@H](n2c(=O)n(C)c3cnc4cc(F)c(-c5ccc(N6CC[C@@H](N(C)C)C6)nc5)cc4c32)C1` [Example 6, 8-[6-[(3R)-3-(Dimethylamino)pyrrolidin-1-yl]-3-pyridyl]-7-fluoro-1-(cis-3-methoxycyclobutyl)-3-methyl-imidazo[4,5-c]quinolin-2-one] are 1.7 nM and over 30000 nM. For `CO[C@H]1C[C@@H](n2c(=O)n(C)c3cnc4cc(F)c(-c5ccc(N6CCC[C@@H](N(C)C)C6)nc5)cc4c32)C1` [Example 43, 8-[6-[(3R)-3-(dimethylamino)-1-piperidyl]-3-pyridyl]-7-fluoro-1-(cis-3-methoxycyclobutyl)-3-methyl-imidazo[4,5-c]quinolin-2-one], the IC50 is 72 nM in test [1] and over 30000 nM in test [2]. For `CO[C@@H]1CCC[C@H](n2c(=O)n(C)c3cnc4ccc(-c5ccc(N6CCC(N(C)C)CC6)nc5)cc4c32)C1` (single isomer, unassigned) [Example 46, 8-[6-[4-(dimethylamino)-1-piperidyl]-3-pyridyl]-1-[cis-3-methoxycyclohexyl]-3-methyl-imidazo[4,5-c]quinolin-2-one], in that order: 7.7 nM and over 10000 nM. On the same counts, the results for `CO[C@H]1CC[C@H](n2c(=O)n(C)c3cnc4ccc(-c5ccc(N6CC(N(C)C)C6)nc5)cc4c32)C1` (single isomer, unassigned) [Example 23, 8-[6-[3-(dimethylamino)azetidin-1-yl]-3-pyridyl]-1-[trans-3-methoxycyclopentyl]-3-methyl-imidazo[4,5-c]quinolin-2-one] are 22.8 nM and over 24000 nM.

As to `CO[C@H]1CC[C@H](n2c(=O)n(C)c3cnc4ccc(-c5ccc(N6CC[C@@H](N(C)C)C6)nc5)cc4c32)C1` [Example 5, 8-[6-[(3R)-3-(Dimethylamino)pyrrolidin-1-yl]-3-pyridyl]-1-[(1S,3S)-3-methoxycyclopentyl]-3-methyl-imidazo[4,5-c]quinolin-2-one], the IC50 is 0.312 nM in test [1] and 284 nM in test [2]. On the same counts, the results for `CO[C@H]1C[C@@H](n2c(=O)n(C)c3cnc4cc(F)c(-c5ccc(N6CC[C@H](N(C)C)C6)nc5)cc4c32)C1` [Example 21] are 25.8 nM and over 30000 nM. On to `CN(C)[C@@H]1CCN(c2ccc(-c3ccc4ncc5c(c4c3)n([C@H]3CCCOC3)c(=O)n5C)cn2)C1` [Example 9], for which the results for the IC50 in test [1] and in test [2] were 0.842 nM and 2480 nM, respectively. For “8-[6-[4-(dimethylamino)-1-piperidyl]-3-pyridyl-3-methyl-1-tetrahydropyran-4-yl-imidazo[4,5-c]quinolin-2-one [Example 39]”, in that order: 2.69 nM and over 30000 nM. On the same counts, the results for `CN(C)C1CN(c2ccc(-c3ccc4ncc5c(c4c3)n(C3CCC3)c(=O)n5C)cn2)C1` [Example 26, 1-cyclobutyl-8-[6-[3-(dimethylamino)azetidin-1-yl]-3-pyridyl]-3-methyl-imidazo[4,5-c]quinolin-2-one] are 9.29 nM and over 20100 nM. With `CN(C)[C@H]1CCN(c2ccc(-c3cc4c(cc3F)ncc3c4n([C@@H]4CCCOC4)c(=O)n3C)cn2)C1` [Example 19], the IC50 in test [1] was 63.4 nM; in test [2] it was over 30000 nM. As for `CN(C)[C@@H]1CCN(c2ccc(-c3cc4c(cc3F)ncc3c4n([C@@H]4CCCOC4)c(=O)n3C)cn2)C1` [Example 14], the IC50 in test [1] came to 1.51 nM. On to `CO[C@H]1CCC[C@H](n2c(=O)n(C)c3cnc4ccc(-c5ccc(N6CC(N(C)C)C6)nc5)cc4c32)C1` (single isomer, unassigned) [Example 55, 8-[6-[3-(dimethylamino)azetidin-1-yl]-3-pyridyl]-1-[trans-3-methoxycyclohexyl]-3-methyl-imidazo[4,5-c]quinolin-2-one], for which the IC50 is 3.38 nM in test [1] and 804 nM in test [2].
